Experimental data from patent US20110144206A1, “USE OF A COX-2 INHIBITOR FOR THE TREATMENT OF A COX-2 DEPENDENT DISORDER IN A PATIENT NOT CARRYING HLA ALLELES ASSOCIATED WITH HEPATOTOXICITY” (priority 2008, published 2011).

Experiments:
[1] = Liver enzyme (ALT/AST) elevation rates in TARGET study; type: in vivo, human
Experimental: Affected patients and matched controls are identified from a large 52-week international, multicenter, stratified, randomized, double-blind, double-dummy, parallel group clinical study. Most patients are administered one 400 mg dose of lumiracoxib each day. Patients are identified as affected cases based upon clinical measurements of elevated liver enzymes greater than or equal to 3 times ULN following administration of lumiracoxib. Patients are identified as control cases based upon clinical measurements of elevated liver enzymes less than 3 times ULN following administration of lumiracoxib, and control patients are matched to affected cases based upon clinical trial, country (where possible), sex, race and age (within 2 years, where possible). A total of 137 cases and 577 matched controls are used for analysis.
Kaplan-Meier incidence estimates are calculated for the DQA1*0102 carriers and non-carriers for >3xULN (FIG. 4) and >5xULN (FIG. 5) ALT/AST elevations.

[2] = cited from earlier work
[3] = TARGET, crude rate, whole treatment group
[4] = TARGET, crude rate, whole treatment group (Hy's law cases)
[5] = TARGET, patients with DNA and excluding DQA1*0102 patients, N ~3538 estimated

Compound: CC(C)Cc1ccc(C(C)C(=O)O)cc1 (centres unmarked) [Ibuprofen]
- ALT/AST >3x ULN [1, 3]: 35 (0.8) n (%)
- ALT/AST >5x ULN [1, 3]: 13 (0.3) n (%)
- ALT/AST >8x ULN [1, 3]: 4 (0.1) n (%)
- ALT/AST >3x ULN + bilirubin ≧2xULN [1, 4]: 2 (0.05) n (%)
- Hy's law cases ([1]; TARGET, per treatment arm): 2 cases

Compound: COc1ccc2cc([C@H](C)C(=O)O)ccc2c1 [Naproxen]
- ALT/AST >3x ULN [1, 3]: 21 (0.5) n (%)
- ALT/AST >5x ULN [1, 3]: 6 (0.1) n (%)
- ALT/AST >8x ULN [1, 3]: 3 (0.1) n (%)
- ALT/AST >3x ULN + bilirubin ≧2xULN [1, 4]: 2 (0.04) n (%)
- Hy's law cases ([1]; TARGET, per treatment arm): 2 cases

Compound: Cc1ccc(Nc2c(F)cccc2Cl)c(CC(=O)O)c1 [Lumiracoxib, 2-[(2-chloro-6-fluorophenyl)amino]-5-methyl-benzeneacetic acid]
- Kaplan-Meier incidence estimates of >3xULN and >5xULN ALT/AST elevations ([1]; DQA1*0102 carriers): dramatic increase in the incidence after week 13
- Kaplan-Meier incidence estimates of >3xULN and >5xULN ALT/AST elevations ([1]; DQA1*0102 non-carriers): do not show a sharp increase after week 13
- Hy's law cases ([1]; TARGET, DQA1*0102-negative patients in the lumiracoxib arm): no cases
- ALT/AST >3x ULN [1, 3]: 236 (2.6) n (%)
- ALT/AST >5x ULN [1, 3]: 113 (1.3) n (%)
- ALT/AST >8x ULN [1, 3]: 56 (0.62) n (%)
- ALT/AST >3x ULN + bilirubin ≧2xULN [1, 4]: 9 (0.10) n (%)
- ULN ALT/AST rates compared to the lumiracoxib arm ([1]; TARGET, lumiracoxib DQA1*0102-negative patients): reduced considerably and are comparable to the other NSAIDs
- ALT/AST >3x ULN [1, 5]: 36 (1.0) n (%)
- ALT/AST >3x ULN + bilirubin ≧2xULN [1, 5]: 0 (0) n (%)
- ALT/AST >5x ULN [1, 5]: 10 (0.3) n (%)
- ALT/AST >8x ULN [1, 5]: 3 (0.1) n (%)
- Hy's law cases ([1]; TARGET, per treatment arm): Nine
- retention in inflamed tissues ([2]; inflamed tissues): up to 24 hours
- time to maximum plasma concentrations after dosing ([2]; oral): two
- elimination half-life from plasma ([2]; plasma): four
